Measured values as given in ChEMBL document CHEMBL1909046, “DrugMatrix in vitro pharmacology data”.

Assays:
[1] = target: Tyrosine-protein kinase Fyn (Homo sapiens, UniProt P06241); assay: biochemical; format: cell-based, Insect cells;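 further: enzymatic inhibition of Fyn kinase activity measured with Poly(Glu:Tyr) as the phosphorylation substrate; in other assays of this panel Not Active means under 50% inhibition at 10 µM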
[2] = target: Protein phosphatase 3 catalytic subunit alpha (Homo sapiens, UniProt Q08209); set-up: species or system Escherichia coli;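 further: inhibition of calcineurin (PP2B) enzyme activity, measured with DiFMUP as the substrate; in other assays of this panel Not Active means under 50% inhibition at 10 µM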
[3] = DRUGMATRIX: Calcium Channel Type L, Dihydropyridine radioligand binding (ligand: [3H] Nitrendipine); format: cell membranes, Rattus norvegicus, Wistar, Cerebral cortex, Membrane; conditions: Not Active = under 50% inhibition at 10 µM
Substance-K receptor = target: T1, Substance-K receptor (Homo sapiens, UniProt P21452); format: cell membranes, CHO, Membrane; further: in other assays of this panel Not Active means under 50% inhibition at 10 µM
T1 sequence (P21452 whole entry): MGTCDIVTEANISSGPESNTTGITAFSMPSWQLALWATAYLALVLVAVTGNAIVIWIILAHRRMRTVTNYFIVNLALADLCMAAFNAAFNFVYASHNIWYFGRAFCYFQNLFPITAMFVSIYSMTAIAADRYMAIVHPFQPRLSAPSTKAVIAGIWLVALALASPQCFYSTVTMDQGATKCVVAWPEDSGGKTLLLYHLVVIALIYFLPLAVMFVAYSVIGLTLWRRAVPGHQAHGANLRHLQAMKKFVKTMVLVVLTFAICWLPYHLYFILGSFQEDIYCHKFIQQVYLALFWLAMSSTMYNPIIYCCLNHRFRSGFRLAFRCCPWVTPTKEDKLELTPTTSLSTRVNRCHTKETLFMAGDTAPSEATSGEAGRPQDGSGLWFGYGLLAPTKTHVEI

[4] = DRUGMATRIX: ATPase, Na+/K+ enzyme inhibition (substrate: ATP); format: tissue-based, Sus scrofa, Heart; conditions: Not Active = under 50% inhibition at 10 µM
[5] = DRUGMATRIX: Imidazoline I2, Central radioligand binding (ligand: [3H] Idazoxan); format: cell membranes, Rattus norvegicus, Wistar, Cerebral cortex, Membrane; conditions: Not Active = under 50% inhibition at 10 µM

Tyrosine-protein kinase Fyn, sequence (P06241 whole entry): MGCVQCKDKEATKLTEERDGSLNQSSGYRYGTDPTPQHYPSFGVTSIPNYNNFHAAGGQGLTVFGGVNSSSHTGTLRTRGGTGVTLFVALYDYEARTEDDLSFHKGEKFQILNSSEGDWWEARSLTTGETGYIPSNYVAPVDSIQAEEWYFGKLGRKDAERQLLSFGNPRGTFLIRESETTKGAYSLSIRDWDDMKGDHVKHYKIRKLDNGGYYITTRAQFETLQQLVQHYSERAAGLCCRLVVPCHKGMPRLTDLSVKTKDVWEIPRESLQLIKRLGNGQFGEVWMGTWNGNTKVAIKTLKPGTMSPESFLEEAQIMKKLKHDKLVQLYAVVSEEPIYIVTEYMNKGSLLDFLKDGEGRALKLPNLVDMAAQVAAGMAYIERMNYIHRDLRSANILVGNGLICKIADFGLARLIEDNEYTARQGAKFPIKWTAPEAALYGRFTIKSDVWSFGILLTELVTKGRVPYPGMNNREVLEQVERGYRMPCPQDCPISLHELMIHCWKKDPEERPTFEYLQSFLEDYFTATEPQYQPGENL

SMILES	IC50 ([1]; insect cells)	IC50 [2]	IC50 [3]	Ki [3]	IC50 (Substance-K receptor; cho)	IC50 [4]	Ki [4]	IC50 [5]	Ki [5]	IC50 ([1]; read-out: IC50)	IC50 (Substance-K receptor; read-out: IC50)	Ki (Substance-K receptor; read-out: Ki)	IC50 ([5]; read-out: IC50)	Ki ([5]; read-out: Ki)
COc1cc(N)nc2[nH]c(-c3ccc(F)cc3)c(-c3ccncc3)c12	Not Active	Not Active	Not Active	Not Active	Not Active	Not Active	Not Active	Not Active	Not Active	–	–	–	–	–
CNS(=O)(=O)Cc1ccc2[nH]cc(CCN(C)C)c2c1	Not Active	Not Active	Not Active	Not Active	Not Active	Not Active	Not Active	Not Active	Not Active	–	–	–	–	–
CCCc1nn(C)c2c(=O)[nH]c(-c3cc(S(=O)(=O)N4CCN(C)CC4)ccc3OCC)nc12	Not Active	Not Active	Not Active	Not Active	Not Active	Not Active	Not Active	Not Active	Not Active	–	–	–	–	–
COc1ccc(/C=C/C(=O)Nc2ccccc2C(=O)O)cc1OC	Not Active	Not Active	Not Active	Not Active	Not Active	Not Active	Not Active	Not Active	Not Active	–	–	–	–	–
CCOC(N)=O	Not Active	Not Active	Not Active	Not Active	Not Active	Not Active	Not Active	Not Active	Not Active	–	–	–	–	–
CC(=O)Nc1nnc(S(N)(=O)=O)s1 [ACETAZOLAMIDE]	Not Active	Not Active	–	–	Not Active	–	–	–	–	–	–	–	–	–
O=c1[nH]c2ccccc2n1CCCN1CCC(n2c(=O)[nH]c3cc(Cl)ccc32)CC1 [DOMPERIDONE]	Not Active	Not Active	–	–	Not Active	–	–	–	–	–	–	–	–	–
CC1=C(CC(=O)O)c2cc(F)ccc2/C1=C\c1ccc(S(C)(=O)=O)cc1 [EXISULIND]	Not Active	Not Active	Not Active	Not Active	Not Active	Not Active	Not Active	Not Active	Not Active	–	–	–	–	–
CC(C)OC(=O)C(C)(C)Oc1ccc(C(=O)c2ccc(Cl)cc2)cc1 [FENOFIBRATE]	Not Active	Not Active	–	–	Not Active	–	–	–	–	–	–	–	–	–
OCCN1CCN(CCCN2c3ccccc3Sc3ccc(C(F)(F)F)cc32)CC1 [FLUPHENAZINE]	–	Not Active	–	–	–	–	–	–	–	7.99 µM	22.5 µM	7.49 µM	–	–
CN1C2CCCC1CC(NC(=O)c1nn(C)c3ccccc13)C2 (stereo unspecified) [GRANISETRON]	Not Active	Not Active	–	–	Not Active	–	–	–	–	–	–	–	–	–
Nc1nc2c(c(=O)[nH]1)N(C=O)C(CNc1ccc(C(=O)N[C@@H](CCC(=O)O)C(=O)O)cc1)CN2 (stereo partly specified) [LEUCOVORIN]	Not Active	Not Active	Not Active	Not Active	Not Active	Not Active	Not Active	Not Active	Not Active	–	–	–	–	–
C[C@@H](O)[C@H]1C(=O)N2C(C(=O)O)=C(S[C@@H]3CN[C@H](C(=O)N(C)C)C3)[C@H](C)[C@H]12 [MEROPENEM]	Not Active	Not Active	Not Active	Not Active	Not Active	Not Active	Not Active	Not Active	Not Active	–	–	–	–	–
CC[C@@H](CO)NC(=O)[C@@H]1C=C2c3cccc4c3c(cn4C)C[C@H]2N(C)C1 [METHYSERGIDE]	Not Active	Not Active	–	–	Not Active	–	–	–	–	–	–	–	–	–
CCN(CC)CC#CCOC(=O)C(O)(c1ccccc1)C1CCCCC1 (stereo unspecified) [OXYBUTYNIN]	Not Active	Not Active	–	–	Not Active	–	–	–	–	–	–	–	–	–
O=P(O)(O)C(O)(Cc1cccnc1)P(=O)(O)O [RISEDRONIC ACID]	Not Active	Not Active	Not Active	Not Active	Not Active	Not Active	Not Active	Not Active	Not Active	–	–	–	–	–

SMILES	IC50 ([1]; insect cells)	IC50 [2]	IC50 [3]	Ki [3]	IC50 (Substance-K receptor; cho)	IC50 [4]	Ki [4]	IC50 [5]	Ki [5]	IC50 ([1]; read-out: IC50)	IC50 (Substance-K receptor; read-out: IC50)	Ki (Substance-K receptor; read-out: Ki)	IC50 ([5]; read-out: IC50)	Ki ([5]; read-out: Ki)
CN(CCOc1ccc(CC2SC(=O)NC2=O)cc1)c1ccccn1 (stereo unspecified) [ROSIGLITAZONE]	Not Active	Not Active	Not Active	Not Active	Not Active	Not Active	Not Active	Not Active	Not Active	–	–	–	–	–
C=C(C)[C@H]1Cc2c(ccc3c2O[C@@H]2COc4cc(OC)c(OC)cc4[C@@H]2C3=O)O1 [ROTENONE]	Not Active	Not Active	Not Active	Not Active	Not Active	Not Active	Not Active	Not Active	Not Active	–	–	–	–	–
C#CCN(C)[C@H](C)Cc1ccccc1 [SELEGILINE]	Not Active	Not Active	Not Active	Not Active	Not Active	Not Active	Not Active	–	–	–	–	–	1.61 µM	1.08 µM
CO[C@H]1C[C@@H]2CC[C@@H](C)[C@@](O)(O2)C(=O)C(=O)N2CCCC[C@H]2C(=O)O[C@H]([C@H](C)C[C@@H]2CC[C@@H](O)[C@H](OC)C2)CC(=O)[C@H](C)/C=C(\C)[C@@H](O)[C@@H](OC)C(=O)[C@H](C)C[C@H](C)/C=C/C=C/C=C/1C [SIROLIMUS]	Not Active	Not Active	Not Active	Not Active	Not Active	Not Active	Not Active	Not Active	Not Active	–	–	–	–	–
CN[C@@H]1[C@H](O)[C@H](NC)[C@H]2O[C@@]3(O)C(=O)C[C@@H](C)O[C@H]3O[C@@H]2[C@H]1O [SPECTINOMYCIN]	Not Active	Not Active	Not Active	Not Active	Not Active	Not Active	Not Active	Not Active	Not Active	–	–	–	–	–
Nc1ccc(S(=O)(=O)Nc2ncccn2)cc1 [SULFADIAZINE]	Not Active	Not Active	Not Active	Not Active	Not Active	Not Active	Not Active	Not Active	Not Active	–	–	–	–	–
COc1ncnc(NS(=O)(=O)c2ccc(N)cc2)c1OC [SULFADOXINE]	Not Active	Not Active	Not Active	Not Active	Not Active	Not Active	Not Active	Not Active	Not Active	–	–	–	–	–
Nc1ccc(S(=O)(=O)Nc2nccs2)cc1 [SULFATHIAZOLE]	Not Active	Not Active	Not Active	Not Active	Not Active	Not Active	Not Active	Not Active	Not Active	–	–	–	–	–
C[C@]12CC[C@H]3[C@@H](CCC4=CC(=O)CC[C@@]43C)[C@@H]1CC[C@@H]2O [TESTOSTERONE]	Not Active	Not Active	Not Active	Not Active	Not Active	Not Active	Not Active	Not Active	Not Active	–	–	–	–	–
CC(C)(C)NC[C@H](O)COc1nsnc1N1CCOCC1 [TIMOLOL]	Not Active	Not Active	Not Active	Not Active	Not Active	Not Active	Not Active	Not Active	Not Active	–	–	–	–	–
CCS(=O)(=O)CCn1c([N+](=O)[O-])cnc1C [TINIDAZOLE]	Not Active	Not Active	Not Active	Not Active	Not Active	Not Active	Not Active	Not Active	Not Active	–	–	–	–	–
C[C@@H]1C[C@H]2[C@@H]3CCC4=CC(=O)C=C[C@]4(C)C3=CC[C@]2(C)[C@H]1C(=O)CN1CCN(c2cc(N3CCCC3)nc(N3CCCC3)n2)CC1 [TIRILAZAD]	–	Not Active	Not Active	Not Active	Not Active	Not Active	Not Active	Not Active	Not Active	1.12 µM	–	–	–	–
NC[C@H]1O[C@H](O[C@H]2[C@H](O)[C@@H](O[C@H]3O[C@H](CO)[C@@H](O)[C@H](N)[C@H]3O)[C@H](N)C[C@@H]2N)[C@H](N)C[C@@H]1O [TOBRAMYCIN]	Not Active	Not Active	Not Active	Not Active	Not Active	Not Active	Not Active	Not Active	Not Active	–	–	–	–	–
O=c1n(CCCN2CCN(c3cccc(Cl)c3)CC2)nc2ccccn12 [TRAZODONE]	Not Active	Not Active	–	–	Not Active	–	–	–	–	–	–	–	–	–
O=C(O)C(Cl)(Cl)Cl [TRICHLOROACETIC ACID]	Not Active	Not Active	Not Active	Not Active	Not Active	Not Active	Not Active	Not Active	Not Active	–	–	–	–	–
COc1ccc(CN2CCNCC2)c(OC)c1OC [TRIMETAZIDINE]	Not Active	Not Active	Not Active	Not Active	Not Active	Not Active	Not Active	Not Active	Not Active	–	–	–	–	–
